Measurements reported in paper PMC11855478, “Bicyclic N,S-Acetals Containing Fused Cysteine-Amide System as New Heterocyclic Class Targeting Human Farnesyltransferase (FTase-h)” (International Journal of Molecular Sciences, 2025).

How the values were obtained:
[1] = tested on: panel of 60 human cancer cell lines; assay: NCI 60 cell panel one dose screen (whole panel); format: cell-based; set-up: Delta (One Dose Mean Graph): unit not given here; settings: 1.00E-5 Molar one dose; for Range (One Dose Mean Graph): in % (unit assumed); for Mean Growth Percent: mean over tested cell lines
Procedure, shortened: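 Single-dose screen at 10 µM across the NCI 60 human cancer cell line panel; 48 h compound exposure with growth measured by sulforhodamine B assay.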

[2] = tested on: CCRF-CEM (Leukemia); assay: NCI one dose, CCRF-CEM; format: cell-based, human; settings: 1.00E-5 Molar one dose
Procedure, shortened: (§1)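 Compounds were screened in the NCI 60-cell-line human cancer panel with a 48 h exposure; cytotoxicity was read by sulforhodamine B staining.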

[3] = tested on: K-562 leukaemia cells; assay: NCI one dose, K-562; format: cell-based, human; settings: K-562, 1.00E-5 Molar one dose
Procedure, shortened: as §1

[4] = tested on: RPMI-8226 (Leukemia); assay: NCI one dose, RPMI-8226; format: cell-based, human; settings: RPMI-8226, 1.00E-5 Molar one dose
Procedure, shortened: as §1

[5] = tested on: EKVX (Non-Small Cell Lung Cancer); assay: NCI one dose, EKVX; format: cell-based, human; settings: 1.00E-5 Molar one dose
Procedure, shortened: as §1

[6] = tested on: NCI-H23 (Non-Small Cell Lung Cancer); assay: NCI one dose, NCI-H23; format: cell-based, human; settings: NCI-H23, 1.00E-5 Molar one dose
Procedure, shortened: as §1

[7] = tested on: NCI-H322M (Non-Small Cell Lung Cancer); assay: NCI one dose, NCI-H322M; format: cell-based, human; settings: 1.00E-5 Molar one dose
Procedure, shortened: as §1

[8] = tested on: COLO 205 (Colon Cancer); assay: NCI one dose, COLO 205; format: cell-based, human; settings: COLO 205, 1.00E-5 Molar one dose
Protocol: (§2) 3.4. Cell Proliferation Assay
(§3) Selected compounds were tested on a panel of 60 human cancer cell lines at the National Cancer Institute (NCI), Germantown, MD, USA. The cytotoxicity studies were conducted using a 48 h exposure protocol using the sulfo-rhodamine B assay.

[9] = tested on: HCC-2998 (Colon Cancer); assay: NCI one dose, HCC-2998; format: cell-based, human; settings: HCC-2998, 1.00E-5 Molar one dose
Procedure, shortened: as §1

[10] = tested on: KM12 (Colon Cancer); assay: NCI one dose, KM12; format: cell-based, human; settings: KM12, 1.00E-5 Molar one dose
Procedure, shortened: as §1

[11] = tested on: SF-268 (CNS Cancer); assay: NCI one dose, SF-268; format: cell-based, human; settings: SF-268, 1.00E-5 Molar one dose
Procedure, shortened: as §1

[12] = tested on: SF-295 (CNS Cancer); assay: NCI one dose, SF-295; format: cell-based, human; settings: SF-295, 1.00E-5 Molar one dose
Procedure, shortened: (§4)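 NCI60 human tumour panel; 48 h drug exposure; SRB read-out.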

[13] = tested on: SF-539 (CNS Cancer); assay: NCI one dose, SF-539; format: cell-based, human; settings: SF-539, 1.00E-5 Molar one dose
Procedure, shortened: as §1

[14] = tested on: SNB-19 (CNS Cancer); assay: NCI one dose, SNB-19; format: cell-based, human; settings: SNB-19, 1.00E-5 Molar one dose
Procedure, shortened: as §1

[15] = tested on: U251 (CNS Cancer); assay: NCI one dose, U251; format: cell-based, human; settings: U251, 1.00E-5 Molar one dose
Procedure, shortened: as §1

[16] = tested on: LOX IMVI (Melanoma); assay: NCI one dose, LOX IMVI; format: cell-based, human; settings: 1.00E-5 Molar one dose
Procedure, shortened: as §1

[17] = tested on: MALME-3M (Melanoma); assay: NCI one dose, MALME-3M; format: cell-based, human; settings: 1.00E-5 Molar one dose
Procedure, shortened: as §4

[18] = tested on: SK-MEL-2 (Melanoma); assay: NCI one dose, SK-MEL-2; format: cell-based, human; settings: SK-MEL-2, 1.00E-5 Molar one dose
Procedure, shortened: as §1

[19] = tested on: UACC-257 melanoma cells; assay: NCI one dose, UACC-257; format: cell-based, human; settings: UACC-257, 1.00E-5 Molar one dose
Procedure, shortened: as §1

[20] = tested on: UACC-62 (Melanoma); assay: NCI one dose, UACC-62; format: cell-based, human; settings: UACC-62, 1.00E-5 Molar one dose
Procedure, shortened: as §1

[21] = tested on: IGROV1 (Ovarian Cancer); assay: NCI one dose, IGROV1; format: cell-based, human; settings: IGROV1, 1.00E-5 Molar one dose
Procedure, shortened: as §1

[22] = tested on: OVCAR-3 (Ovarian Cancer); assay: NCI one dose, OVCAR-3; format: cell-based, human; settings: OVCAR-3, 1.00E-5 Molar one dose
Procedure, shortened: as §1

[23] = tested on: OVCAR-4 (Ovarian Cancer); assay: NCI one dose, OVCAR-4; format: cell-based, human; settings: OVCAR-4, 1.00E-5 Molar one dose
Procedure, shortened: as §1

[24] = tested on: OVCAR-5 (Ovarian Cancer); assay: NCI one dose, OVCAR-5; format: cell-based, human; settings: OVCAR-5, 1.00E-5 Molar one dose
Procedure, shortened: as §1

[25] = tested on: SK-OV-3 (Ovarian Cancer); assay: NCI one dose, SK-OV-3; format: cell-based, human; settings: SK-OV-3, 1.00E-5 Molar one dose
Procedure, shortened: as §1

[26] = tested on: A498 (Renal Cancer); assay: NCI one dose, A498; format: cell-based, human; settings: A498, 1.00E-5 Molar one dose
Procedure, shortened: as §1

[27] = tested on: ACHN (Renal Cancer); assay: NCI one dose, ACHN; format: cell-based, human; settings: 1.00E-5 Molar one dose
Procedure, shortened: as §4

[28] = tested on: CAKI-1 (Renal Cancer); assay: NCI one dose, CAKI-1; format: cell-based, human; settings: CAKI-1, 1.00E-5 Molar one dose
Procedure, shortened: as §1

[29] = tested on: RXF 393 (Renal Cancer); assay: NCI one dose, RXF 393; format: cell-based, human; settings: RXF 393, 1.00E-5 Molar one dose
Procedure, shortened: as §1

[30] = tested on: SN12C (Renal Cancer); assay: NCI one dose, SN12C; format: cell-based, human; settings: 1.00E-5 Molar one dose
Procedure, shortened: as §1

[31] = tested on: HS 578T (Breast Cancer); assay: NCI one dose, HS 578T; format: cell-based, human; settings: 1.00E-5 Molar one dose
Procedure, shortened: as §1

[32] = tested on: BT-549 (Breast Cancer); assay: NCI one dose, BT-549; format: cell-based, human; settings: BT-549, 1.00E-5 Molar one dose
Procedure, shortened: as §1

[33] = tested on: T-47D (Breast Cancer); assay: NCI one dose, T-47D; format: cell-based, human; settings: 1.00E-5 Molar one dose
Protocol: as §2, §3

| Compound | Delta (One Dose Mean Graph) [1] | Range (One Dose Mean Graph) [1] | Mean Growth Percent [1] | Growth Percent [2] | Growth Percent [3] | Growth Percent [4] | Growth Percent [5] | Growth Percent [6] | Growth Percent [7] | Growth Percent [8] | Growth Percent [9] | Growth Percent [10] | Growth Percent [11] | Growth Percent [12] | Growth Percent [13] | Growth Percent [14] | Growth Percent [15] | Growth Percent [16] | Growth Percent [17] | Growth Percent [18] | other results |
| --- | --- | --- | --- | --- | --- | --- | --- | --- | --- | --- | --- | --- | --- | --- | --- | --- | --- | --- | --- | --- | --- |
| COc1cccc(CNC(=O)[C@@H]2CS[C@@]3(C)c4ccccc4C(=O)N23)c1 [4bE] | 31.41 | 48.09 | 98.86% | 94.80% | 82.59% | 95.74% | 112.43% | 98.91% | 102.58% | 115.50% | 107.01% | 107.56% | 106.18% | 97.61% | 104.59% | 102.99% | 100.00% | 101.37% | 110.68% | 97.24% | Growth Percent [19]: 81.73%; Growth Percent [20]: 91.91%; Growth Percent [21]: 107.98%; Growth Percent [22]: 115.54%; Growth Percent [23]: 94.52%; Growth Percent [24]: 110.33%; Growth Percent [25]: 101.46%; Growth Percent [26]: 85.49%; Growth Percent [27]: 106.16%; Growth Percent [28]: 85.65%; Growth Percent [29]: 107.08%; Growth Percent [30]: 101.62%; Growth Percent [31]: 95.18%; Growth Percent [32]: 110.64%; Growth Percent [33]: 96.67% |
| COc1cccc(CNC(=O)[C@@H]2CS[C@H]3c4ccccc4C(=O)N23)c1 [4aE] | 27.47 | 39.82 | 101.56% | 102.31% | 85.13% | 101.67% | 111.45% | 99.84% | 105.81% | 112.81% | 98.50% | 100.40% | 100.53% | 99.74% | 110.14% | 104.75% | 102.42% | 102.67% | 107.90% | 95.73% | Growth Percent [19]: 93.82%; Growth Percent [20]: 102.11%; Growth Percent [21]: 109.07%; Growth Percent [22]: 104.00%; Growth Percent [23]: 112.11%; Growth Percent [24]: 113.91%; Growth Percent [25]: 110.57%; Growth Percent [26]: 92.71%; Growth Percent [27]: 110.85%; Growth Percent [28]: 96.42%; Growth Percent [29]: 101.84%; Growth Percent [30]: 105.19%; Growth Percent [31]: 98.68%; Growth Percent [32]: 110.89%; Growth Percent [33]: 103.32% |
| C[C@@]12SC[C@@H](C(=O)NCc3ccccc3)N1C(=O)c1ccccc12 [4bA] | 22.99 | 45.00 | 97.89% | 95.36% | 91.39% | 104.44% | 104.65% | 98.21% | 96.63% | 108.00% | 113.03% | 102.18% | 109.78% | 98.04% | 95.44% | 100.20% | 92.28% | 101.57% | 107.28% | 92.83% | Growth Percent [19]: 79.51%; Growth Percent [20]: 97.03%; Growth Percent [21]: 105.63%; Growth Percent [22]: 119.90%; Growth Percent [23]: 102.82%; Growth Percent [24]: 97.87%; Growth Percent [25]: 102.08%; Growth Percent [26]: 91.48%; Growth Percent [27]: 102.90%; Growth Percent [28]: 89.87%; Growth Percent [29]: 108.00%; Growth Percent [30]: 95.20%; Growth Percent [31]: 100.47%; Growth Percent [32]: 106.90%; Growth Percent [33]: 90.12% |
